Measurements taken from patent US20250197914A1, “MICROBIAL MEDIUM COMPOSITION FOR PRODUCING RETINOL, COMPRISING ANTI-OXIDANT, AND USE THEREOF” (CJ CHEILJEDANG CORPORATION, priority 2022, published 2025).

Tested on: retinol-producing strains (Yarrowia lipolytica)
Assay: Flask test of retinol production of retinol-producing strains with antioxidants in the medium
Format: cell-based
Conditions: antioxidant added to YLMM2 medium at 0.01% to 0.05%; 30° C., 200 rpm; 48 hour culture; HPLC
Procedure: A flask test was performed to compare the degree of retinol production of retinol-producing strains according to the presence and absence, and the type of antioxidants. Each retinol production platform strain was inoculated in a 250 ml corner-baffled flask containing 25 ml of Yarrowia lipolytica minimal media2 (YLMM2) at an initial OD of 4, and 4 types of antioxidants, 3,5-Di-tert-4-butylhydroxytoluene (BHT), propyl gallate (PG), vitamin C, and glutathione (GSH), were added to the medium at a concentration of 0.01% to 0.05%, respectively. Culturing was carried out under conditions of 30° C. and 200 rpm.
To evaluate the degree of growth according to culture time, the OD value at a wavelength of 600 nm was measured using a spectrophotometer, and the method of measuring retinol concentrations is as follows; After the culture was completed, 1 ml of the culture medium was centrifuged to remove the supernatant, then 0.5 ml of dimethyl sulfoxide (DMSO, Sigma) was added and the cells were disrupted by agitation at 55° C. for 10 minutes (agitation; 2,000 rpm). Next, 0.5 ml of acetone (Sigma) containing 4% BHT was added and agitated (2,000 rpm) for 15 min at 45° C., and retinoids extracted in this manner were quantitatively analyzed using HPLC equipment.
Considering that the sugar consumption rate may vary depending on the type of antioxidants which were added to the medium, BHT, PG, vitamin C, and GSH were each cultured for 48 hours. After 48 hour-incubation, retinal and retinol were extracted and quantified.

SMILES	retinol concentration increase as compared to the control group without antioxidants
Cc1cc(C(C)(C)C)c(O)c(C(C)(C)C)c1 [BHT, 3,5-di-tert-4-butylhydroxytoluene]	up to 1.89 times
N[C@@H](CCC(=O)N[C@@H](CS)C(=O)NCC(=O)O)C(=O)O [GSH, glutathione]	≤ 1.21 times
CCCOC(=O)c1cc(O)c(O)c(O)c1 [PG, propyl gallate]	≤ 1.82 times
O=C1O[C@H]([C@@H](O)CO)C(O)=C1O [vitamin C, ascorbic acid]	≤ 1.44 times
